Consider 8 compounds from US10995088B2, “Methylamine derivatives as lysysl oxidase inhibitors for the treatment of cancer” (The Institute of Cancer Research: Royal Cancer Hospital, priority 2016, dated 2021).

Where a name gives a salt, the structure may show the parent alone.

Data set [1] in a line: in vivo. The conditions noted are these: female, mouse, po, 50 mg/kg.
A short description of data set [2]: in vivo. Particulars: rat, po, 20 mg/kg.
In data set [3] the test system is MATN2 in MDA-MB-231 cells. The experiment in a line: MATN2 level in MDA-MB-231 cells (Western blotting). Type of data set: cell-based, human. Particulars: at a much higher concentration than 20 μM. The procedure:
Proteins were extracted from cultured cells using cell lysis buffer (Cell Signalling Technology) with the addition of protease and phosphatase inhibitor cocktails (Pierce). Protein concentrations were measured using Pierce 660 nm protein assay reagent and SpectaMax M5 plate reader. […] Separated proteins were transferred to nitrocellulose membranes using a Trans-Blot turbo transfer system (Bio-Rad). Following blocking with Odyssey blocking buffer (Li-COR), membranes were incubated with two primary antibodies of different species at 4° C. over night. Corresponding fluorescence secondary antibodies (Li-COR) of different excitation and emission wavelengths were used to visualize the protein of interest on an Odyssey CLx infrared imaging system (Li-COR). Quantification of band fluorescent intensity was achieved using Li-COR ImageStudio. The following primary antibodies were used, anti-LOX (Sigma), anti-human MATN2 (R&D), anti-EGFR and anti-pY1068EGFR (Cell Signalling Technology), and anti-GAPDH (Millipore).
LOX inhibitors show significant reduction of MATN2 in MDA-MB-231 cells treated at 20 μM overnight.
On the technique in general: A western blot detects proteins with antibodies after separation by electrophoresis.

The target in data set [4] is MAO-B (Homo sapiens (Human), UniProt P27338). The experiment in a line: Monoamine oxidase B (MAO-B) selectivity assay (MAO-Glo). It counts as biochemical.
Sequence of MAO-B (P27338 whole entry): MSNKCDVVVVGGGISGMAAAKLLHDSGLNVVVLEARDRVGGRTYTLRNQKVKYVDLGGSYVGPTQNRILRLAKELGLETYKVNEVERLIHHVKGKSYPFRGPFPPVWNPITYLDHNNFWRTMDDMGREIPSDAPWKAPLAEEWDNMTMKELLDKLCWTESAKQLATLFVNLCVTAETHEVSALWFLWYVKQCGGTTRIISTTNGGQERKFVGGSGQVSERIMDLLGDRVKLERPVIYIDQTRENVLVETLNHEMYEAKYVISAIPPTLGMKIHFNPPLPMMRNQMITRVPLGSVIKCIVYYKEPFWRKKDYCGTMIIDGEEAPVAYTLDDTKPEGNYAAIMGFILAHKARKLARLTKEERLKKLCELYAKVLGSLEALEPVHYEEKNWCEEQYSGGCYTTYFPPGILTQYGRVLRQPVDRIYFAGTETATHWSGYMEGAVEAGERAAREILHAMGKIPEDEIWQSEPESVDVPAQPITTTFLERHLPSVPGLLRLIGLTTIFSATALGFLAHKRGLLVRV
Data set [5] concerns the target MAO-A (Homo sapiens (Human), UniProt P21397). The experiment in a line: Monoamine oxidase A (MAO-A) selectivity assay (MAO-Glo). It counts as biochemical.
The test system of data set [6] is TGF beta signalling (pSMAD2). It counts as cell-based. The conditions noted are these: leading to MATN2 reduction.
The target of data set [7] is DAO (Sus scrofa, UniProt Q9TRC7). Particulars: read-out: DAO IC50.
Sequence of DAO (Q9TRC7 25-755 limits assumed): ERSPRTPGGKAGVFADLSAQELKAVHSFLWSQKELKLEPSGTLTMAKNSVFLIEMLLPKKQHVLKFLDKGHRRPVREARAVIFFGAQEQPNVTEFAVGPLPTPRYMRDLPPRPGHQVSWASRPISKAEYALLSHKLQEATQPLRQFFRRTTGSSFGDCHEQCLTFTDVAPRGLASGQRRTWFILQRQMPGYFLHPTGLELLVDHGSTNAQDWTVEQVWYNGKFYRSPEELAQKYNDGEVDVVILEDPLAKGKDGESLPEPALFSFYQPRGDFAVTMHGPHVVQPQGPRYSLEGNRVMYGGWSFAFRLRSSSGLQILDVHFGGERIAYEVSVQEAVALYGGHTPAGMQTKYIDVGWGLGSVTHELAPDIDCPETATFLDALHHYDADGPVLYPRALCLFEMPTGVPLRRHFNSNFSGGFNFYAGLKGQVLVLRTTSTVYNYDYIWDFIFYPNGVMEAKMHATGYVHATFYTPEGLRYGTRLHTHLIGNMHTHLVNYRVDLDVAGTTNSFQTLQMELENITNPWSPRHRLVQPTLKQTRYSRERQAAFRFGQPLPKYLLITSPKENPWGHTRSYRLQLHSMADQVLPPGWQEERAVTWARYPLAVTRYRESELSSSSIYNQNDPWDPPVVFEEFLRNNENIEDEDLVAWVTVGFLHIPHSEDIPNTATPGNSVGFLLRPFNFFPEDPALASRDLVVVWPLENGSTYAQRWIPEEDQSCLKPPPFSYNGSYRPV

Sequence of MAO-A (P21397 whole entry): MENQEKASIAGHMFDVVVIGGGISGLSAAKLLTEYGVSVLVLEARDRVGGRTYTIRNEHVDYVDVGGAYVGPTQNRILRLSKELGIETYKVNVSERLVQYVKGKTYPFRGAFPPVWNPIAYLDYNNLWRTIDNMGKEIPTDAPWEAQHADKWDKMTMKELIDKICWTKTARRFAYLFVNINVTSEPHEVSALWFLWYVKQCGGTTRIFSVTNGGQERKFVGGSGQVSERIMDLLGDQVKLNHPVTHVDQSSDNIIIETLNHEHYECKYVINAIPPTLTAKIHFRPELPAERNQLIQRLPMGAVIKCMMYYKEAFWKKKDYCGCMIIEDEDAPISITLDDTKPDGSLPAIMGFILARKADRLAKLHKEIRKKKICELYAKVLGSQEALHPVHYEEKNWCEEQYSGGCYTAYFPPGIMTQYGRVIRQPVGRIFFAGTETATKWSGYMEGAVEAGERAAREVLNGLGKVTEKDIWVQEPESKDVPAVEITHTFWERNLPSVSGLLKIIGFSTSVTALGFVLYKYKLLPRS

Usually bioavailability stands for dose-corrected exposure relative to a reference, in per cent. Higher therefore signals much systemic uptake. As for `NCc1ncc(S(=O)(=O)c2cc(C(=O)O)cc(-c3ccccc3)c2)s1` [Example 126, 5-((2-(Aminomethyl)thiazol-5-yl)sulfonyl)-[1,1′-biphenyl]-3-carboxylic acid ditrifluoroacetate], the bioavailability in data set [1] worked out at 67%; in data set [2], 33%.

As for `N#CCCN` [BAPN, beta-aminopropionitrile], the “reduction of MATN2” value in data set [3] was “The same effect was seen”. Besides, in data set [4], the MAO-B inhibition entry was “neither inhibits”. For the same compound, in data set [5], the MAO-A inhibition result is “neither inhibits”. In addition, the “TGF beta signalling as indicated by pSMAD2” value in data set [6] is recorded as “increased”.

What is called IC50 is the midpoint of a concentration-inhibition curve. Take `Cn1cc(-c2cccc(S(=O)(=O)c3cnc(CN)s3)c2)cn1` [Example 116, (5-((3-(1-Methyl-1H-pyrazol-4-yl)phenyl)sulfonyl)thiazol-2-yl)methanamine]: in data set [7], the IC50 is over 100 µM.

With `Cn1cc(-c2cc(F)cc(S(=O)(=O)c3cnc(CN)s3)c2)cn1` [Example 131, (5-((3-Fluoro-5-(1-methyl-1H-pyrazol-4-yl)phenyl)sulfonyl)thiazol-2-yl)methanamine trihydrochloride], the IC50 in data set [7] is over 100 µM.

Regarding `Cn1cc(-c2cc(C(=O)O)cc(S(=O)(=O)c3cnc(CN)s3)c2)cn1` [Example 150, 3-((2-(Aminomethyl)thiazol-5-yl)sulfonyl)-5-(1-methyl-1H-pyrazol-4-yl)benzoic acid tihydrochloride], the IC50 in data set [7] is over 100 µM.

For the compound `CCc1cc(-c2ccc[n+]([O-])c2)cc(S(=O)(=O)c2cnc(CN)s2)c1` [Example 113, 3-(3-((2-(Aminomethyl)thiazol-5-yl)sulfonyl)-5-ethylphenyl)pyridine 1-oxide hydrochloride], in data set [7], the IC50 was over 100 µM.

On to `CN(C)C(=O)c1cc(-c2ccccc2)cc(S(=O)(=O)c2cnc(CN)s2)c1` [Example 125, 5-((2-(Aminomethyl)thiazol-5-yl)sulfonyl)-N,N-dimethyl-[1,1′-biphenyl]-3-carboxamide dihydrochloride], for which the IC50 in data set [7] was over 100 µM.

Turning to `Cc1ccc(-c2cc(S(=O)(=O)c3ccc(CN)s3)ccc2S(C)(=O)=O)cc1` [Example 82, (5-((4′-Methyl-6-(methylsulfonyl)-[1,1′-biphenyl]-3-yl)sulfonyl)thiophen-2-yl)methanamine hydrochloride], in data set [7], the concentration for half-maximal inhibition (IC50) is over 100 µM. In addition, the bioavailability in data set [1] amounted to 74%.
